# From patent publication EP2931723B1, “NEW BICYCLIC COMPOUNDS AND THEIR USE AS ANTIBACTERIAL AGENTS AND -LACTAMASE INHIBITORS” (Fedora Pharmaceuticals Inc., priority 2012, dated 2014)
# Tests used:
# Test in all cases: MIC, antibacterial and synergistic activity
# Assay type in all cases: cell-based
# E. coli JMI 4080 = system: E. coli JMI 4080
# K. pneumo JMI 4106 = K. pneumo JMI 4106 (KPC-3, TEM-1, SHV-12, SHV-141)
# E. coli JMI 10767 [1] = settings: E. coli JMI 10767 (Wt)
# E.coli JMI 4103 = E.coli JMI 4103 (KPC-2, Tem-1, CMY-Type)
# K. pneumo JMI 2693 = K. pneumo JMI 2693 (NDM-1 (Cpase))
# Experimental: (§1) In the Tables 10 - 12, compounds herein disclosed were tested in combination with various antibiotics against metallo β-lactamase producing bacteria.
# E. coli JMI 2692 = E. coli JMI 2692 (NDM-1, TEM-1, CTX-M-15)
# Experimental: as §1
# K. pneumo JMI 2697 = K. pneumo JMI 2697 (IMP-4 (Cpase))
# Experimental: as §1
# K. pneumo JMI 4088 = K. pneumo JMI 4088 (KPC-3 (Cpase)); substance alone
# K. pneumo JMI 2681 = K. pneumo JMI 2681 (Oxa-48 (Cpase))
# P. aerug JMI 149 = P. aerug JMI 149 (Bla+++D+)
# E. coli JMI 10768 [2] = settings: E. coli JMI 10768 (CTX-M15 (Weak ESBL)); Meropenem + inhibitor at 4 µg/mL
# P. aerug JMI 2686 = P. aerug JMI 2686 (KPC-2 (Cpase)); substance alone
# E. coli JMI 10767 [3] = settings: E. coli JMI 10767 (Wt); remark: listed apart in the source
# Experimental: (§2) In the Tables 10 - 12, compounds herein disclosed were tested in combination with various antibiotics against metallo β-lactamase producing bacteria. Table 3: Synergy of the inhibitor Ex. 1 (4 µg/mL) in combination with antibiotics
# E. coli JMI 2671 = system: E. coli JMI 2671
# Summary of the method: (§3)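 MICs were measured for antibiotics combined with the test inhibitor, held at a fixed 4 µg/mL, against metallo β-lactamase-producing clinical isolates.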
# E. coli JMI 2665 = system: E. coli JMI 2665
# Experimental: as §2
# K. pneumo JMI 2699 = K. pneumo JMI 2699 (VIM-1, CTX-M3)
# Summary of the method: as §3
# E. coli JMI 10770 = E. coli JMI 10770 (CTX-M15 (Hyper ESBL))
# Experimental: as §2
# K.pneumo JMI 4109 = K.pneumo JMI 4109 (SHV-1, SHV-12)
# Summary of the method: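 Antibacterial synergy was assessed by pairing each inhibitor compound, at a constant concentration of 4 µg/mL, with β-lactam antibiotics. The combinations were run against bacterial strains that produce β-lactamases, and the readout was the minimum inhibitory concentration of the antibiotic in the presence of the inhibitor.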
# E. coli JMI 10768 [4] = settings: E. coli JMI 10768 (CTX-M15 (Weak ESBL))
# Experimental: as §2
# K. pneumo JMI 2674 = K. pneumo JMI 2674 (CTX-M15 (ESBL)); substance alone
# E. coli ATCC 25922 = E. coli ATCC 25922 (Wt)
# E. coli JMI 11103 = system: E. coli JMI 11103
# [5] = Aztreonam + inhibitor at 4 µg/mL
# [6] = Ceftazidime + inhibitor at 4 µg/mL
# [7] = Meropenem + inhibitor at 4 µg/mL
smiles,measurement,setting,value
"CC(=O)NNC(=O)[C@@H]1CC[C@@H]2CN1C(=O)N2OS(=O)(=O)O [Ex. 5, (2S,5R)-N'-acetyl-7-oxo-6-(sulfooxy)-1,6-diazabicyclo[3.2.1]octane-2-carbohydrazide]",MIC Aztreonam + inhibitor,"E. coli JMI 4080; E. coli JMI 4080 (Tem-10), Aztreonam + inhibitor at 4 µg/mL",≤0.062 µg/mL
same,MIC Ceftazidime + inhibitor,"E. coli JMI 4080; E. coli JMI 4080 (Tem-10), Ceftazidime + inhibitor at 4 µg/mL",≤0.25 µg/mL
same,MIC Meropenem + inhibitor,"E. coli JMI 4080; E. coli JMI 4080 (Tem-10), Meropenem + inhibitor at 4 µg/mL",≤0.031 µg/mL
same,MIC,"E. coli JMI 4080; Escherichia coli, JMI4080, E. coli JMI 4080 (Tem-10), substance alone",2 µg/mL
same,MIC Aztreonam + inhibitor,K. pneumo JMI 4106; [5],1 µg/mL
same,MIC Ceftazidime + inhibitor,K. pneumo JMI 4106; [6],0.5 µg/mL
same,MIC Meropenem + inhibitor,K. pneumo JMI 4106; [7],2 µg/mL
same,MIC,"K. pneumo JMI 4106; substance alone, read-out: MIC",> 16 µg/mL
same,MIC Meropenem + inhibitor,E. coli JMI 10767 [1]; [7],≤0.031 µg/mL
same,MIC,"E. coli JMI 10767 [1]; Escherichia coli, JMI10767, substance alone",8 µg/mL
same,MIC Aztreonam + inhibitor,E.coli JMI 4103; [5],≤0.062 µg/mL
same,MIC Ceftazidime + inhibitor,E.coli JMI 4103; [6],≤0.25 µg/mL
same,MIC Meropenem + inhibitor,E.coli JMI 4103; [7],≤0.031 µg/mL
same,MIC,"E.coli JMI 4103; Escherichia coli, JMI4103, substance alone",8 µg/mL
same,MIC Aztreonam + inhibitor,K. pneumo JMI 2693; [5],0.5 µg/mL
same,MIC Ceftazidime + inhibitor,K. pneumo JMI 2693; [6],0.5 µg/mL
same,MIC Meropenem + inhibitor,K. pneumo JMI 2693; [7],0.125 µg/mL
same,MIC,K. pneumo JMI 2693; substance alone,> 16 µg/mL
same,MIC Aztreonam + inhibitor,E. coli JMI 2692; [5],≤0.062 µg/mL
same,MIC Ceftazidime + inhibitor,E. coli JMI 2692; [6],≤0.25 µg/mL
same,MIC Meropenem + inhibitor,E. coli JMI 2692; [7],≤0.031 µg/mL
same,MIC,"E. coli JMI 2692; Escherichia coli, JMI2692, substance alone, read-out: MIC",2 µg/mL
same,MIC Aztreonam + inhibitor,K. pneumo JMI 2697; [5],≤0.062 µg/mL
same,MIC Ceftazidime + inhibitor,K. pneumo JMI 2697; [6],>2 µg/mL
same,MIC Meropenem + inhibitor,K. pneumo JMI 2697; [7],0.125 µg/mL
same,MIC,K. pneumo JMI 2697; substance alone,16 µg/mL
same,MIC,K. pneumo JMI 4088,> 16 µg/mL
same,MIC Aztreonam + inhibitor,K. pneumo JMI 2681; [5],0.5 µg/mL
same,MIC Ceftazidime + inhibitor,K. pneumo JMI 2681; [6],≤0.25 µg/mL
same,MIC Meropenem + inhibitor,K. pneumo JMI 2681; [7],2 µg/mL
same,MIC,"K. pneumo JMI 2681; substance alone, read-out: MIC",16 µg/mL
same,MIC Aztreonam + inhibitor,P. aerug JMI 149; [5],>4 µg/mL
same,MIC Ceftazidime + inhibitor,P. aerug JMI 149; [6],>16 µg/mL
same,MIC Meropenem + inhibitor,P. aerug JMI 149; [7],0.5 µg/mL
same,MIC,"P. aerug JMI 149; substance alone, read-out: MIC",> 16 µg/mL
same,MIC Meropenem + inhibitor,E. coli JMI 10768 [2],≤0.031 µg/mL
same,MIC,P. aerug JMI 2686,16 µg/mL
same,MIC Aztreonam + inhibitor,E. coli JMI 10767 [3]; [5],≤0.062 µg/mL
same,MIC Ceftazidime + inhibitor,E. coli JMI 10767 [3]; [6],≤0.25 µg/mL
same,MIC Aztreonam + inhibitor,"E. coli JMI 2671; E. coli JMI 2671 (VIM-19 (Cpase)), Aztreonam + inhibitor at 4 µg/mL",≤0.062 µg/mL
same,MIC Ceftazidime + inhibitor,"E. coli JMI 2671; E. coli JMI 2671 (VIM-19 (Cpase)), Ceftazidime + inhibitor at 4 µg/mL",2 µg/mL
same,MIC Meropenem + inhibitor,"E. coli JMI 2671; E. coli JMI 2671 (VIM-19 (Cpase)), Meropenem + inhibitor at 4 µg/mL",0.25 µg/mL
same,MIC,"E. coli JMI 2671; Escherichia coli, JMI2671, E. coli JMI 2671 (VIM-19 (Cpase)), substance alone",16 µg/mL
same,MIC Aztreonam + inhibitor,"E. coli JMI 2665; E. coli JMI 2665 (CMY-2 (Plasmid Cpase)), Aztreonam + inhibitor at 4 µg/mL",≤0.062 µg/mL
same,MIC Ceftazidime + inhibitor,"E. coli JMI 2665; E. coli JMI 2665 (CMY-2 (Plasmid Cpase)), Ceftazidime + inhibitor at 4 µg/mL",≤0.25 µg/mL
same,MIC Meropenem + inhibitor,"E. coli JMI 2665; E. coli JMI 2665 (CMY-2 (Plasmid Cpase)), Meropenem + inhibitor at 4 µg/mL",≤0.031 µg/mL
same,MIC,"E. coli JMI 2665; Escherichia coli, JMI2665",2 µg/mL
same,MIC Aztreonam + inhibitor,K. pneumo JMI 2699; [5],≤0.062 µg/mL
same,MIC Ceftazidime + inhibitor,K. pneumo JMI 2699; [6],2 µg/mL
same,MIC Meropenem + inhibitor,K. pneumo JMI 2699; [7],≤0.031 µg/mL
same,MIC,"K. pneumo JMI 2699; substance alone, read-out: MIC",> 16 µg/mL
same,MIC Aztreonam + inhibitor,E. coli JMI 10770; [5],≤0.062 µg/mL
same,MIC Ceftazidime + inhibitor,E. coli JMI 10770; [6],≤0.25 µg/mL
same,MIC Meropenem + inhibitor,E. coli JMI 10770; [7],≤0.031 µg/mL
same,MIC Aztreonam + inhibitor,K.pneumo JMI 4109; [5],≤0.062 µg/mL
same,MIC Ceftazidime + inhibitor,K.pneumo JMI 4109; [6],≤0.25 µg/mL
same,MIC Meropenem + inhibitor,K.pneumo JMI 4109; [7],≤0.031 µg/mL
same,MIC Aztreonam + inhibitor,E. coli JMI 10768 [4]; [5],≤0.062 µg/mL
same,MIC Ceftazidime + inhibitor,E. coli JMI 10768 [4]; [6],≤0.25 µg/mL
same,MIC,"E. coli JMI 10768 [4]; Escherichia coli, JMI10768, substance alone",8 µg/mL
same,MIC,K. pneumo JMI 2674,> 16 µg/mL
same,MIC Aztreonam + inhibitor,E. coli ATCC 25922; [5],≤0.062 µg/mL
same,MIC Ceftazidime + inhibitor,E. coli ATCC 25922; [6],≤0.25 µg/mL
same,MIC Meropenem + inhibitor,E. coli ATCC 25922; [7],≤0.031 µg/mL
same,MIC,"E. coli ATCC 25922; Escherichia coli, ATCC25922, substance alone",2 µg/mL
same,MIC Aztreonam + inhibitor,"E. coli JMI 11103; E. coli JMI 11103 (CTX-M15 (Intermediate ESBL)), Aztreonam + inhibitor at 4 µg/mL",≤0.062 µg/mL
same,MIC Ceftazidime + inhibitor,"E. coli JMI 11103; E. coli JMI 11103 (CTX-M15 (Intermediate ESBL)), Ceftazidime + inhibitor at 4 µg/mL",≤0.25 µg/mL
same,MIC Meropenem + inhibitor,"E. coli JMI 11103; E. coli JMI 11103 (CTX-M15 (Intermediate ESBL)), Meropenem + inhibitor at 4 µg/mL",≤0.031 µg/mL
same,MIC,"E. coli JMI 11103; Escherichia coli, JMI11103, E. coli JMI 11103 (CTX-M15 (Intermediate ESBL)), substance alone",8 µg/mL
